From US10745382B2 (BRISTOL-MYERS SQUIBB COMPANY, priority 2015, dated 2020)
Like-named read-outs stand apart in the source and are kept apart here.

Biological target: T1, PD-1/PD-L1 (Homo sapiens, UniProt Q9NZQ7)
T1 construct: made in house; host or cells: HEK293T
Experiment: PD-1/PD-L1 Homogenous Time-Resolved Fluorescence (HTRF) binding assay
Details: PD-L1-His 10 nM, PD-1-Ig 20 nM, read-out: Range or IC50
In short: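 Detection by europium cryptate anti-Ig plus APC anti-His (1 nM and 20 nM final) with HTRF signal. Buffer was dPBS, 0.1% BSA, 0.05% Tween-20.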

T1 sequence (Q9NZQ7 with tags, fused parts or gaps): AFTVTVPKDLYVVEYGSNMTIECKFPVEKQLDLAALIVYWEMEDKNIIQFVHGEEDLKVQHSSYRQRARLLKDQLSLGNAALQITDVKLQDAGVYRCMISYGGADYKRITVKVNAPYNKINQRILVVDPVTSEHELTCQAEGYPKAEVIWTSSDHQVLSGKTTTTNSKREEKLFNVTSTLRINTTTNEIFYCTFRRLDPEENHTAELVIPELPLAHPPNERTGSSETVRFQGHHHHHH

Structure (SMILES)	IC50 (value given as range class)	IC50 (numeric IC50)
Cc1c(COc2cc(OCc3cncc(C#N)c3)c(CN3CCCC[C@H]3C(=O)O)cc2Cl)cccc1-c1cccc(OCCCN(C)Cc2ccccn2)c1C [Example 2228, (2S)-1-(5-chloro-2-((5-cyanopyridin-3-yl)methoxy)-4-((2,2′-dimethyl-3′-(3-(methyl(pyridin-2-ylmethyl)amino)propoxy)biphenyl-3-yl)methoxy)benzyl)piperidine-2-carboxylic Acid]	10 to 100 nM	
COC(=O)[C@H]1CC[C@H](NCCCOc2cccc(-c3cccc(COc4cc(OCc5cncc(C#N)c5)c(CN5CCCC[C@H]5C(=O)O)cc4Cl)c3C)c2C)CC1 [Example 2229, (2S)-1-(5-chloro-2-((5-cyanopyridin-3-yl)methoxy)-4-((3′-(3-((1r,4r)-4-(methoxycarbonyl)cyclohexylamino)propoxy)-2,2′-dimethylbiphenyl-3-yl)methoxy)benzyl)piperidine-2-carboxylic Acid]	0.21 to 10 nM	
Cc1c(COc2cc(OCc3cncc(C#N)c3)c(CN3CCCC[C@H]3C(=O)O)cc2Cl)cccc1-c1cccc(OCCCN[C@@H](CO)c2ccccc2)c1C [Example 2230, (2S)-1-(5-chloro-2-((5-cyanopyridin-3-yl)methoxy)-4-((3′-(3-((R)-2-hydroxy-1-phenylethylamino)propoxy)-2,2′-dimethylbiphenyl-3-yl)methoxy)benzyl)piperidine-2-carboxylic Acid]	0.21 to 10 nM	
Cc1c(COc2cc(OCc3cncc(C#N)c3)c(CN3CCCC[C@H]3C(=O)O)cc2Cl)cccc1-c1cccc(OCCCNCCc2ncn(C)c2Cl)c1C [Example 2231, (2S)-1-(5-chloro-4-((3′-(3-(2-(5-chloro-1-methyl-1H-imidazol-4-yl)ethylamino)propoxy)-2,2′-dimethylbiphenyl-3-yl)methoxy)-2-((5-cyanopyridin-3-yl)methoxy)benzyl)piperidine-2-carboxylic Acid]		12 nM
Cc1c(COc2cc(OCc3cncc(C#N)c3)c(CN3CCCC[C@H]3C(=O)O)cc2Cl)cccc1-c1cccc(OCCCN2CC(N(C)C)C2)c1C [Example 2232, (2S)-1-(5-chloro-2-((5-cyanopyridin-3-yl)methoxy)-4-((3′-(3-(3-(dimethylamino)azetidin-1-yl)propoxy)-2,2′-dimethylbiphenyl-3-yl)methoxy)benzyl)piperidine-2-carboxylic Acid]	0.21 to 10 nM	
Cc1c(COc2cc(OCc3cncc(C#N)c3)c(CN3CCCC[C@H]3C(=O)O)cc2Cl)cccc1-c1cccc(OCCCN(C)CCO)c1C [Example 2233, (2S)-1-(5-chloro-2-((5-cyanopyridin-3-yl)methoxy)-4-((3′-(3-((2-hydroxyethyl)(methyl)amino)propoxy)-2,2′-dimethylbiphenyl-3-yl)methoxy)benzyl)piperidine-2-carboxylic Acid]	0.21 to 10 nM	
Cc1c(COc2cc(OCc3cncc(C#N)c3)c(CN3CCCC[C@H]3C(=O)O)cc2Cl)cccc1-c1cccc(OCCCNCC(C)(C)CO)c1C [Example 2234, (2S)-1-(5-chloro-2-((5-cyanopyridin-3-yl)methoxy)-4-((3′-(3-(3-hydroxy-2,2-dimethylpropylamino)propoxy)-2,2′-dimethylbiphenyl-3-yl)methoxy)benzyl)piperidine-2-carboxylic Acid]	0.21 to 10 nM	
Cc1c(COc2cc(OCc3cncc(C#N)c3)c(CN3CCCC[C@H]3C(=O)O)cc2Cl)cccc1-c1cccc(OCCCNCC(O)CO)c1C (stereo partly drawn) [Example 2235, (2S)-1-(5-chloro-2-((5-cyanopyridin-3-yl)methoxy)-4-((3′-(3-(2,3-dihydroxypropylamino)propoxy)-2,2′-dimethylbiphenyl-3-yl)methoxy)benzyl)piperidine-2-carboxylic Acid]	0.21 to 10 nM	
Cc1c(COc2cc(OCc3cncc(C#N)c3)c(CN3CCCC[C@H]3C(=O)O)cc2Cl)cccc1-c1cccc(OCCCN(CCO)Cc2ccccc2)c1C [Example 2236, (2S)-1-(4-((3′-(3-(benzyl(2-hydroxyethyl)amino)propoxy)-2,2′-dimethylbiphenyl-3-yl)methoxy)-5-chloro-2-((5-cyanopyridin-3-yl)methoxy)benzyl)piperidine-2-carboxylic Acid]	0.21 to 10 nM	
Cc1c(COc2cc(OCc3cncc(C#N)c3)c(CN3CCCC[C@H]3C(=O)O)cc2Cl)cccc1-c1cccc(OCCCN[C@@H](CO)C(C)C)c1C [Example 2237, (2S)-1-(5-chloro-2-((5-cyanopyridin-3-yl)methoxy)-4-((3′-(3-((R)-1-hydroxy-3-methylbutan-2-ylamino)propoxy)-2,2′-dimethylbiphenyl-3-yl)methoxy)benzyl)piperidine-2-carboxylic Acid]	0.21 to 10 nM	
Cc1c(COc2cc(OCc3cncc(C#N)c3)c(CN3CCCC[C@H]3C(=O)O)cc2Cl)cccc1-c1cccc(OCCCN[C@H](CO)C(C)C)c1C [Example 2238, (2S)-1-(5-chloro-2-((5-cyanopyridin-3-yl)methoxy)-4-((3′-(3-((S)-1-hydroxy-3-methylbutan-2-ylamino)propoxy)-2,2′-dimethylbiphenyl-3-yl)methoxy)benzyl)piperidine-2-carboxylic Acid]	0.21 to 10 nM	
Cc1c(COc2cc(OCc3cncc(C#N)c3)c(CN[C@@](C)(CO)C(=O)O)cc2Cl)cccc1-c1cccc(OCCCN2CCC[C@@H](C(=O)O)C2)c1C [Example 2239, (3R)-1-(3-(3′-((4-(((S)-2-carboxy-1-hydroxypropan-2-ylamino)methyl)-2-chloro-5-((5-cyanopyridin-3-yl)methoxy)phenoxy)methyl)-2,2′-dimethylbiphenyl-3-yloxy)propyl)piperidine-3-carboxylic Acid]	0.21 to 10 nM	
Cc1c(COc2cc(OCc3cncc(C#N)c3)c(CN3CCCC[C@H]3C(=O)O)cc2Cl)cccc1-c1cccc(OCCCN2C[C@@H](O)C[C@H]2C(=O)O)c1C [Example 2240, (2S)-1-(4-((3′-(3-((2S,4S)-2-carboxy-4-hydroxypyrrolidin-1-yl)propoxy)-2,2′-dimethylbiphenyl-3-yl)methoxy)-5-chloro-2-((5-cyanopyridin-3-yl)methoxy)benzyl)piperidine-2-carboxylic Acid]	0.21 to 10 nM	
Cc1c(COc2cc(OCc3cncc(C#N)c3)c(CN3CCCC[C@H]3C(=O)O)cc2Cl)cccc1-c1cccc(OCCCN2C[C@H](O)C[C@H]2C(=O)O)c1C [Example 2241, (2S)-1-(4-((3′-(3-((2S,4R)-2-carboxy-4-hydroxypyrrolidin-1-yl)propoxy)-2,2′-dimethylbiphenyl-3-yl)methoxy)-5-chloro-2-((5-cyanopyridin-3-yl)methoxy)benzyl)piperidine-2-carboxylic Acid]	0.21 to 10 nM	
Cc1c(COc2cc(OCc3cncc(C#N)c3)c(CN3CCCC[C@H]3C(=O)O)cc2Cl)cccc1-c1cccc(OCCCNC[C@H](O)C(=O)O)c1C [Example 2242, (2S)-1-(4-((3′-(3-((S)-2-carboxy-2-hydroxyethylamino)propoxy)-2,2′-dimethylbiphenyl-3-yl)methoxy)-5-chloro-2-((5-cyanopyridin-3-yl)methoxy)benzyl)piperidine-2-carboxylic Acid]	0.21 to 10 nM	
COC(=O)[C@@H]1CCCCN1CCCOc1cccc(-c2cccc(COc3cc(OCc4cncc(C#N)c4)c(CN4CCCC[C@H]4C(=O)O)cc3Cl)c2C)c1C [Example 2243, (2S)-1-(5-chloro-2-((5-cyanopyridin-3-yl)methoxy)-4-((3′-(3-((S)-2-(methoxycarbonyl)piperidin-1-yl)propoxy)-2,2′-dimethylbiphenyl-3-yl)methoxy)benzyl)piperidine-2-carboxylic Acid]	0.21 to 10 nM	
Cc1c(COc2cc(OCc3cncc(C#N)c3)c(CN3CCCC[C@H]3C(=O)O)cc2Cl)cccc1-c1cccc(OCCCN2CCCCC2C(N)=O)c1C (stereo partly drawn) [Example 2244, (2S)-1-(4-((3′-(3-(2-carbamoylpiperidin-1-yl)propoxy)-2,2′-dimethylbiphenyl-3-yl)methoxy)-5-chloro-2-((5-cyanopyridin-3-yl)methoxy)benzyl)piperidine-2-carboxylic Acid]	0.21 to 10 nM	
Cc1c(COc2cc(OCc3cncc(C#N)c3)c(CN3CCCC[C@H]3C(=O)O)cc2Cl)cccc1-c1cccc(OCCCN2CCCCC2C)c1C (stereo partly drawn) [Example 2245, (2S)-1-(5-chloro-2-((5-cyanopyridin-3-yl)methoxy)-4-((2,2′-dimethyl-3′-(3-(2-methylpiperidin-1-yl)propoxy)biphenyl-3-yl)methoxy)benzyl)piperidine-2-carboxylic Acid]	0.21 to 10 nM	
Cc1c(COc2cc(OCc3cncc(C#N)c3)c(CN3CCCC[C@H]3C(=O)O)cc2Cl)cccc1-c1cccc(OCCCN2CCC(N(C)C(=O)OC(C)(C)C)CC2)c1C [Example 2246, (2S)-1-(4-((3′-(3-(4-(tert-butoxycarbonyl(methyl)amino)piperidin-1-yl)propoxy)-2,2′-dimethylbiphenyl-3-yl)methoxy)-5-chloro-2-((5-cyanopyridin-3-yl)methoxy)benzyl)piperidine-2-carboxylic Acid]	0.21 to 10 nM	
Cc1c(COc2cc(OCc3cncc(C#N)c3)c(CN3CCCC[C@H]3C(=O)O)cc2Cl)cccc1-c1cccc(OCCCN2CC[C@H](F)C2)c1C [Example 2247, (2S)-1-(5-chloro-2-((5-cyanopyridin-3-yl)methoxy)-4-((3′-(3-((S)-3-fluoropyrrolidin-1-yl)propoxy)-2,2′-dimethylbiphenyl-3-yl)methoxy)benzyl)piperidine-2-carboxylic Acid]	0.21 to 10 nM	
Cc1c(COc2cc(OCc3cncc(C#N)c3)c(CN3CCCC[C@H]3C(=O)O)cc2Cl)cccc1-c1cccc(OCCCN2CCC(N3CCOCC3)CC2)c1C [Example 2248, (2S)-1-(5-chloro-2-((5-cyanopyridin-3-yl)methoxy)-4-((2,2′-dimethyl-3′-(3-(4-morpholinopiperidin-1-yl)propoxy)biphenyl-3-yl)methoxy)benzyl)piperidine-2-carboxylic Acid]	0.21 to 10 nM	
